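Dose response: 5 concentrations. Exposure: 48 h. Format: 96-well plates. Endpoint: linear interpolation; highest concentration if not reached. GI50: concentration for 50% inhibition of growth.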 Calls of active or inactive are those of the source. Cut-off read from the data, not from the text of the source: active = GI50 up to about 1.1 µM and inactive = higher.
Assays:
Assay in all cases: DTP human tumour cell line panel, 48 h
[1] = tested on: COLO 205
[2] = tested on: SNB-75
[3] = tested on: IGROV-1
[4] = tested on: SNB-19
[5] = tested on: OVCAR-4
[6] = tested on: SK-MEL-5
[7] = tested on: KM12
[8] = tested on: HL-60
[9] = tested on: RXF 393
[10] = tested on: Malme-3M
[11] = tested on: NCI/ADR-RES
[12] = tested on: MDA-MB-435
[13] = tested on: SF-295
[14] = tested on: DU-145
[15] = tested on: TK-10
[16] = tested on: HOP-62
[17] = tested on: RPMI-8226
[18] = tested on: U-251
[19] = tested on: SR
[20] = tested on: SF-539

Row | SMILES | GI50 [1] | GI50 [2] | GI50 [3] | GI50 [4] | GI50 [5] | GI50 [6] | GI50 [7] | GI50 [8] | GI50 [9] | GI50 [10] | GI50 [11] | GI50 [12] | GI50 [13] | GI50 [14] | GI50 [15] | GI50 [16] | GI50 [17] | GI50 [18] | GI50 [19] | GI50 [20]
1 | CN(C)/N=N/c1nc2c(c(=O)n(C)c(=O)n2C)n1CC(O)CO (stereo not drawn) | > 100 µM (inactive) | > 100 µM (inactive) | > 100 µM (inactive) | > 100 µM (inactive) | > 100 µM (inactive) | > 100 µM (inactive) | > 100 µM (inactive) | > 100 µM (inactive) | > 100 µM (inactive) | > 100 µM (inactive) | > 100 µM (inactive) | > 100 µM (inactive) | > 100 µM (inactive) | > 100 µM (inactive) | > 100 µM (inactive) | > 100 µM (inactive) | > 100 µM (inactive) | > 100 µM (inactive) | – | –
2 | CCOC(=O)CSC1NC(C(=O)OC)CC1OC (stereo not drawn) | > 100 µM (inactive) | > 100 µM (inactive) | > 100 µM (inactive) | > 100 µM (inactive) | > 100 µM (inactive) | > 100 µM (inactive) | > 100 µM (inactive) | – | > 100 µM (inactive) | > 100 µM (inactive) | > 100 µM (inactive) | > 100 µM (inactive) | > 100 µM (inactive) | > 100 µM (inactive) | > 100 µM (inactive) | > 100 µM (inactive) | > 100 µM (inactive) | > 100 µM (inactive) | – | –
3 | Nc1c(-c2nc3ccccc3s2)c2ccc([N+](=O)[O-])cc2c(=O)n1-c1cccc(C(=O)O)c1 | 63.5 µM (inactive) | 30.8 µM (inactive) | – | 19.8 µM (inactive) | 31.9 µM (inactive) | 26.7 µM (inactive) | 40.6 µM (inactive) | 18.1 µM (inactive) | – | – | 33.1 µM (inactive) | 35.6 µM (inactive) | – | 23.3 µM (inactive) | 19 µM (inactive) | – | – | 23.4 µM (inactive) | 15.8 µM (inactive) | –
4 | O=[N+]([O-])c1ccc(C(c2c[nH]c3ccccc23)c2c[nH]c3ccccc23)cc1 | 8.13 µM (inactive) | 4.8 µM (inactive) | – | 15.7 µM (inactive) | 12 µM (inactive) | 5.97 µM (inactive) | 6.24 µM (inactive) | 17.7 µM (inactive) | – | 15.5 µM (inactive) | 11 µM (inactive) | 13.3 µM (inactive) | 22.6 µM (inactive) | 4.47 µM (inactive) | 12.7 µM (inactive) | 13.5 µM (inactive) | 1.45 µM (inactive) | 11.8 µM (inactive) | 4.5 µM (inactive) | 16.4 µM (inactive)
5 | CCOP(=O)(OCC)/C(C#N)=C/c1ccc(-c2cc(C(F)(F)F)cc(C(F)(F)F)c2)o1 | 12.4 µM (inactive) | 10.5 µM (inactive) | – | 16 µM (inactive) | – | – | – | 3.4 µM (inactive) | – | – | 9.82 µM (inactive) | 14 µM (inactive) | 1.82 µM (inactive) | 14.6 µM (inactive) | 16.4 µM (inactive) | 14.5 µM (inactive) | 3.59 µM (inactive) | 12 µM (inactive) | 7.43 µM (inactive) | 14.9 µM (inactive)
6 | COC(=O)[C@H](Cc1c[nH]c2ccccc12)NC(=O)c1ccc(CNC(=O)/C(C)=C/c2ccccc2)cc1 | 22.8 µM (inactive) | 0.497 µM (active) | 32.1 µM (inactive) | > 100 µM (inactive) | 30.3 µM (inactive) | 17.4 µM (inactive) | 87.7 µM (inactive) | – | < 0.01 µM (active) | 13 µM (inactive) | 52.8 µM (inactive) | 36.4 µM (inactive) | 60.1 µM (inactive) | 32.5 µM (inactive) | 29.6 µM (inactive) | 92.5 µM (inactive) | 46 µM (inactive) | 80 µM (inactive) | 28.6 µM (inactive) | > 100 µM (inactive)
7 | Cc1cc2c(cc1O)CC[C@@H]1[C@@H]2CC[C@]2(C)[C@@H](O)CC[C@@H]12 | 17.6 µM (inactive) | 5.43 µM (inactive) | 15.8 µM (inactive) | 12.6 µM (inactive) | 12.4 µM (inactive) | 4.67 µM (inactive) | 4.52 µM (inactive) | 1.73 µM (inactive) | – | 6.73 µM (inactive) | 5.77 µM (inactive) | – | 6.08 µM (inactive) | – | 24 µM (inactive) | – | 4.74 µM (inactive) | 5.73 µM (inactive) | 1.83 µM (inactive) | –
8 | Clc1ccc(COC(Cn2ccnc2)c2ccc(Cl)cc2Cl)c(Cl)c1 (stereo not drawn) [MICONAZOLE] | – | – | – | 13.4 µM (inactive) | 10.1 µM (inactive) | – | 11.8 µM (inactive) | 3.78 µM (inactive) | – | 14.9 µM (inactive) | 6.1 µM (inactive) | 3.23 µM (inactive) | 11.2 µM (inactive) | 15.7 µM (inactive) | 13.7 µM (inactive) | 13.5 µM (inactive) | 8.65 µM (inactive) | 11.7 µM (inactive) | – | 13.8 µM (inactive)

Source: ChEMBL document CHEMBL1201862, “PubChem BioAssay data set” (2004)
